Legend:
Assay type in all cases: cell-based
Beta-secretase 1 [1] = biological target: T1, Beta-secretase 1 (Homo sapiens, UniProt P56817); assay: Displacement of [3H]BMS-599240 from BACE1 expressed in HEK293 cells
Beta-secretase 1 [2] = biological target: T1, Beta-secretase 1; assay: Ratio of IC50 for BACE1 in HEK293 cells expressing APP 695 Swedish mutant to Ki for BACE1
Beta-secretase 1 [3] = biological target: T1, Beta-secretase 1; assay: Inhibition of BACE1 in human HEK293 cells expressing APP 695 Swedish mutant assessed as inhibition of amyloid beta (1 to 40) production after overnight incubation by ELISA
Beta-secretase 1 [4] = biological target: T1, Beta-secretase 1; assay: Ratio of IC50 for BACE1 in human KBV1 cells expressing APP 751 Swedish mutant in absence of tariquidar to IC50 for BACE1 in human KBV1 cells expressing APP 751 Swedish mutant in presence of tariquidar

T1 sequence (P56817 whole entry): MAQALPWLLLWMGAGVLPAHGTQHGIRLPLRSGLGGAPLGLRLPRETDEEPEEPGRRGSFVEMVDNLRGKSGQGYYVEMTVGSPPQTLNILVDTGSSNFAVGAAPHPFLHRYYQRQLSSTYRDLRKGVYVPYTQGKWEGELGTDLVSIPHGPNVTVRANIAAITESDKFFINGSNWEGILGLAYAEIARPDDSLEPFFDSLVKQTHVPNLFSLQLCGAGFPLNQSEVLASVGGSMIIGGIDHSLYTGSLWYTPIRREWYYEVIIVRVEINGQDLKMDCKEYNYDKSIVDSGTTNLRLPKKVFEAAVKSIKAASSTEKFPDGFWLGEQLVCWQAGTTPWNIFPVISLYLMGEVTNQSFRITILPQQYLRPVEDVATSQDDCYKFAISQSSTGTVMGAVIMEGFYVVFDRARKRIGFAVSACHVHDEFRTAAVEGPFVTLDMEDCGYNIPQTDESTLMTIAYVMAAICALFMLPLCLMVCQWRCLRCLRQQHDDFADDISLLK

| SMILES | Ki (Beta-secretase 1 [1]) [nM] | Ratio (Beta-secretase 1 [2]) | IC50 (Beta-secretase 1 [3]) [nM] | Ratio IC50 (Beta-secretase 1 [4]) |
| --- | --- | --- | --- | --- |
| COc1ccc(-c2noc(C)c2C(=O)NC(N)=NCc2cc(Cl)cc(-c3ccsc3)c2)cc1 | 1200 | – | – | – |
| COc1ccc(-c2noc(C)c2C(=O)/N=C(\N)NCc2cc(C)c(NC(=O)CCSC)c(Cl)c2)cc1 | – | 21 | – | – |
| COc1ccc(-c2nsc(C)c2C(=O)NC(N)=NCc2cc(Cl)c(NC(=O)CNCc3ccccc3)c(Cl)c2)cc1 | 6 | – | 140 | – |
| COc1ccc(-c2noc(C)c2C(=O)NC(N)=NCc2cc(Cl)c(NC(=O)CSC)c(Cl)c2)cc1 | 50 | – | 2000 | – |
| Cc1onc(-c2ccccc2)c1C(=O)/N=C(\N)NCc1cc(Cl)cc(Cl)c1 | 3900 | – | – | – |
| COc1ccc(-c2noc(C)c2C(=O)/N=C(\N)NCc2cc(Cl)cc(-c3cccnc3)c2)cc1 | 1800 | – | – | – |
| COc1ccc(-c2nsc(C)c2C(=O)/N=C(\N)NCc2cc(Cl)c(NC(=O)CN3CCC3)c(Cl)c2)cc1 | – | 2 | – | 23 |
| COc1ccc(-c2noc(C)c2C(=O)/N=C(\N)NCc2cccc3ccccc23)cc1 | 1700 | – | – | – |
| COc1ccc(-c2nsc(C)c2C(=O)/N=C(\N)NCc2ccc3ccccc3c2)cc1 | 870 | – | – | – |
| COc1ccc(-c2noc(C)c2C(=O)/N=C(\N)NCc2cc(C)c(NC(=O)C3CC3)c(Cl)c2)cc1 | 20 | 16 | 330 | – |
| COc1ccc(-c2noc(C)c2C(=O)/N=C(\N)NCc2cc(Cl)cc(Br)c2)cc1 | 510 | – | – | – |
| COc1ccc(-c2nsc(C)c2C(=O)NC(N)=NCc2cc(C)c(NC(=O)CN(C)C)c(Cl)c2)cc1 | 20 | – | 20 | – |
| COc1ccc(-c2nsc(C)c2C(=O)/N=C(\N)NCc2cc(C)c(NC(C)=O)c(Cl)c2)cc1 | – | 12 | – | – |
| COc1ccc(-c2noc(C)c2C(=O)/N=C(\N)NCc2cc(Cl)cc(/C=C/CCO)c2)cc1 | 140 | – | – | – |
| COc1ccc(-c2noc(C)c2C(=O)/N=C(\N)NCc2cc(Cl)c(NC(=O)C3CC3)c(Cl)c2)cc1 | 50 | 32 | 1600 | – |
| Cc1onc(-c2ccccc2)c1C(=O)/N=C(\N)NCc1ccccc1 | > 10000 | – | – | – |
| Cc1onc(-c2ccc(F)cc2)c1C(=O)NC(N)=NCc1cc(Cl)cc(Cl)c1 | 2200 | – | – | – |
| Cc1onc(-c2ccccc2)c1C(=O)NC(N)=NCc1cccc2ccccc12 | 3900 | – | – | – |
| COc1ccc(-c2nsc(C)c2C(=O)/N=C(\N)NCc2cc(C)c(NC(=O)CNCc3ccccc3)c(Cl)c2)cc1 | – | 7 | – | – |

| SMILES | Ki (Beta-secretase 1 [1]) [nM] | Ratio (Beta-secretase 1 [2]) | IC50 (Beta-secretase 1 [3]) [nM] | Ratio IC50 (Beta-secretase 1 [4]) |
| --- | --- | --- | --- | --- |
| Cc1onc(-c2ccc(F)cc2)c1C(=O)/N=C(\N)NCc1ccc(Cl)c(Cl)c1 | 2400 | – | – | – |
| COc1ccc(-c2nsc(C)c2C(=O)/N=C(\N)NCc2cc(Cl)c(NC(=O)CN(C)C)c(Cl)c2)cc1 | 20 | 4 | 70 | – |
| COc1ccc(-c2noc(C)c2C(=O)/N=C(\N)NCc2cc(C)c(NC(=O)CN(C)C)c(Cl)c2)cc1 | 50 | 2 | 90 | – |
| COc1ccc(-c2nsc(C)c2C(=O)NC(N)=NCc2cc(C)c(NC(=O)CNCc3ccccc3)c(Cl)c2)cc1 | 10 | – | 70 | – |
| COc1ccc(-c2nsc(C)c2C(=O)/N=C(\N)NCc2cc(Cl)cc(Cl)c2)cc1 | 290 | – | > 5000 | – |
| COc1ccc(-c2[nH]nc(C)c2C(=O)/N=C(\N)NCc2cc(Cl)cc(Cl)c2)cc1 | 210 | – | – | – |
| COc1ccc(-c2noc(C)c2C(=O)NC(N)=NCc2ccc(Cl)c(Cl)c2)cc1 | 910 | – | – | – |
| COc1ccc(-c2noc(C)c2C(=O)NC(N)=NCc2cc(C)c(NC(=O)CCSC)c(Cl)c2)cc1 | 30 | – | 640 | – |
| COc1ccc(-c2noc(C)c2C(=O)/N=C(\N)NCc2cc(C)c(NC(=O)c3ccco3)c(Cl)c2)cc1 | 60 | 23 | 1400 | – |
| CCCOc1c(Cl)cc(CN=C(N)NC(=O)c2c(-c3ccc(OC)cc3)noc2C)cc1Cl | > 5000 | – | – | – |
| CCNCC(=O)Nc1c(Cl)cc(CN/C(N)=N/C(=O)c2c(-c3ccc(OC)cc3)nsc2C)cc1Cl | 10 | 2 | 20 | – |
| CCC(=O)Nc1c(C)cc(CN=C(N)NC(=O)c2c(-c3ccc(OC)cc3)noc2C)cc1Cl | 40 | – | 780 | – |
| COc1ccc(-c2noc(C)c2C(=O)/N=C(\N)NCc2cc(Cl)c(NC(=O)CSC)c(Cl)c2)cc1 | – | 40 | – | – |
| COc1ccc(-c2onc(C)c2C(=O)/N=C(\N)NCc2cc(Cl)cc(Cl)c2)cc1 | 860 | – | – | – |
| CCC(=O)Nc1c(C)cc(CN/C(N)=N/C(=O)c2c(-c3ccc(OC)cc3)noc2C)cc1Cl | – | 19 | – | – |
| COc1ccc(-c2noc(C)c2C(=O)NC(N)=NCc2cc(Cl)c(N)c(Cl)c2)cc1 | 120 | – | – | – |
| COc1ccc(-c2nsc(C)c2C(=O)/N=C(\N)NCc2cc(C)c(NC(=O)c3ccccc3)c(Cl)c2)cc1 | 30 | 13 | 430 | – |
| COc1ccc(-c2noc(C)c2C(=O)/N=C(\N)NCc2cc(Cl)c(NC(C)=O)c(Cl)c2)cc1 | 10 | – | 790 | – |
| CCC/C=C/c1cc(Cl)cc(CN=C(N)NC(=O)c2c(-c3ccc(OC)cc3)noc2C)c1 | 850 | – | – | – |

| SMILES | Ki (Beta-secretase 1 [1]) [nM] | Ratio (Beta-secretase 1 [2]) | IC50 (Beta-secretase 1 [3]) [nM] | Ratio IC50 (Beta-secretase 1 [4]) |
| --- | --- | --- | --- | --- |
| COc1ccc(-c2c(C(=O)/N=C(\N)NCc3cc(Cl)cc(Cl)c3)c(C)nn2C)cc1 | 4000 | – | – | – |
| COc1ccc(-c2nsc(C)c2C(=O)/N=C(\N)NCc2cc(Cl)c(NC(=O)CNCc3ccccc3)c(Cl)c2)cc1 | – | 23 | – | – |
| COc1ccc(-c2noc(C)c2C(=O)/N=C(\N)NCc2cc(Cl)c(NC(=O)CN(C)C)c(Cl)c2)cc1 | 50 | 4 | 210 | – |
| COc1ccc(-c2nsc(C)c2C(=O)NC(N)=NCc2cc(C)c(NC(C)=O)c(Cl)c2)cc1 | 20 | – | 240 | – |
| COc1ccc(-c2noc(C)c2C(=O)/N=C(\N)NCc2cc(Cl)c(NC(=O)CS(C)(=O)=O)c(Cl)c2)cc1 | – | 63 | – | – |
| COc1ccc(-c2nsc(C)c2C(=O)/N=C(\N)NCc2cc(Cl)c(NS(C)(=O)=O)c(Cl)c2)cc1 | 280 | – | – | – |
| Cc1onc(-c2ccc(F)cc2)c1C(=O)/N=C(\N)NCc1cccc2ccccc12 | 1800 | – | – | – |
| COc1ccc(-c2nsc(C)c2C(=O)/N=C(\N)NCc2cc(Cl)c(N)c(Cl)c2)cc1 | – | – | – | 1.7 |
| COc1ccc(-c2noc(C)c2C(=O)NC(N)=NCc2cc(Cl)c(NC(=O)CS(C)(=O)=O)c(Cl)c2)cc1 | 30 | – | 1900 | – |
| C=Cc1cc(Cl)cc(CN/C(N)=N/C(=O)c2c(-c3ccc(OC)cc3)noc2C)c1 | 430 | – | – | – |
| Cc1onc(-c2ccccc2)c1C(=O)NC(N)=NCc1ccc(Cl)c(Cl)c1 | 8800 | – | – | – |
| Cc1onc(-c2ccc(F)cc2)c1C(=O)NC(N)=NCc1ccccc1 | > 10000 | – | – | – |
| COc1ccc(-c2noc(C)c2C(=O)/N=C(\N)NCc2cc(C)cc(C)c2)cc1 | 280 | – | – | – |
| COc1ccc(-c2nsc(C)c2C(=O)/N=C(\N)NCc2cccc3ccccc23)cc1 | 500 | – | – | – |
| COC/C=C/c1cc(Cl)cc(CN/C(N)=N/C(=O)c2c(-c3ccc(OC)cc3)noc2C)c1 | 150 | – | – | – |
| CCNCC(=O)Nc1c(C)cc(CN/C(N)=N/C(=O)c2c(-c3ccc(OC)cc3)nsc2C)cc1Cl | 20 | 0.5 | 10 | – |
| COc1ccc(-c2noc(C)c2C(=O)/N=C(\N)NCc2ccccc2)cc1 | 4000 | – | – | – |
| COc1ccc(-c2noc(C)c2C(=O)/N=C(\N)NCc2cc(Cl)c(O)c(Cl)c2)cc1 | 480 | – | – | – |
| COc1ccc(-c2nsc(C)c2C(=O)/N=C(\N)NCc2cc(C)c(NC(=O)CN(C)C)c(Cl)c2)cc1 | – | 1 | – | – |

From ChEMBL document CHEMBL2177026, “Acyl guanidine inhibitors of β-secretase (BACE-1): optimization of a micromolar hit to a nanomolar lead via iterative solid- and solution-phase library synthesis” (J Med Chem, 2012)
